1 compound from paper PMC6089974 (Nature Communications, 2018) can be followed below.

The assay has as its target T1, TmGalA (Thermotoga maritima, UniProt G4FEF4).
T1 construct: gene galA
The assay can be described thus: time-dependent inactivation, dilution assay, residual activity with 4-nitrophenyl α-D-galactopyranoside. It is filed as biochemical. The conditions noted are these: covalent, irreversible inactivator; Ki from kobs versus concentration (kinact/Ki analysis); 50 mM HEPES pH 7.4, 37 °C, BSA 1 mg/mL; read-out: Km (μM) / Ki.

T1 sequence (G4FEF4 whole entry): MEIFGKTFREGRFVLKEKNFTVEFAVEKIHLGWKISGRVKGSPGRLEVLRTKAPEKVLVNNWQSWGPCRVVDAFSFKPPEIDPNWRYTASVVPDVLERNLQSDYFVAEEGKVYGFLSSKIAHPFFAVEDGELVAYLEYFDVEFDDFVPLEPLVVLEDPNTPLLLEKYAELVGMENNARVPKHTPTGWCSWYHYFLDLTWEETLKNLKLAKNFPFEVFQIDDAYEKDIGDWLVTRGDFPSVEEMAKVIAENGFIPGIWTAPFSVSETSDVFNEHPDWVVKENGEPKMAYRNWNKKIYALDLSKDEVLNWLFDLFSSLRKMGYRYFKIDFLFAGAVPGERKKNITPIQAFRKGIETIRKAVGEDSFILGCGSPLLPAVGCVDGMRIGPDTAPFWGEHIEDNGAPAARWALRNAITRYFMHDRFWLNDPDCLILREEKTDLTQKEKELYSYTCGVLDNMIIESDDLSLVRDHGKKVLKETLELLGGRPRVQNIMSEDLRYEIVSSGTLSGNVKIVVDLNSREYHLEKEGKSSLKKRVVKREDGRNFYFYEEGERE

Consider `OC[C@@H]1[C@H](O)[C@H](O)[C@@H](O)[C@H]2O[C@@H]12` [compound 8, cyclophellitol analog 8], for which the KI (inactivation) stood at 161 ± 18 µM.
